Test results taken from US10040838B2, “CRHR2 peptide agonists and uses thereof” (JANSSEN PHARMACEUTICA NV, priority 2008, dated 2018).
Residues, ends and D or L forms follow the SMILES beside them. *: point of attachment. Succinimide(1-Et,3-yl) = CCN1C(=O)CC(*)C1=O

Target: T1, human CRHR2 (Homo sapiens, UniProt Q13324)
T1 construct: expressed in transfected cells
T1 sequence (Q13324 1-411): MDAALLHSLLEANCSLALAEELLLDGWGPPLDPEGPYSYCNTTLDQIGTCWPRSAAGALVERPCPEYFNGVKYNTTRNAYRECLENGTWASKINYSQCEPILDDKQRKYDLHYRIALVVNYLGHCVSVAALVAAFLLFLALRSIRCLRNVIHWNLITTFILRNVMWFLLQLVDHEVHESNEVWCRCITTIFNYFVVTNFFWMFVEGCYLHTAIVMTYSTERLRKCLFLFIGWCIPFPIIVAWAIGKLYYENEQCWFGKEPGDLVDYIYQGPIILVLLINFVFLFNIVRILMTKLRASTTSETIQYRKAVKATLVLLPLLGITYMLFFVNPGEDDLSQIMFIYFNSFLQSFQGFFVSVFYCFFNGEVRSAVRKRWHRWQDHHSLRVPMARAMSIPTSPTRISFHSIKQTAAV
Assay: cAMP assay in h-CRHR2 transfected SK-N-MC cells
Assay type: cell-based
Details: Table 13; h-SCP control pA50 minus test compound pA50 within same assay batch
Protocol: The concentration required for 50% maximum effect (A50) was 0.4 nM.
Human CRHR1 (accession number X72304) or CRHR2 (accession number U34587) were cloned into pcDNA3.1/Zeo expression vector and stably transfected into SK-N-MC cells by electroporation. Cells were maintained in MEM w/Earl's Salt with 10% FBS, 50 I.U. penicillin, 50 μg/ml streptomycin, 2 mM L-glutamine, 1 mM sodium pyruvate and 0.1 mM nonessential amino acids, 600 μg/ml G418. Cells were grown at 37° C. in 5% CO2.
Cells were plated in 96-well tissue culture dishes (Biocoat from BD Biosciences) overnight at 50,000 cell/well. Cells were washed with PBS then resuspended in DMEM F-12 without phenol red, containing 10 μM isobutylmethylxanthine (IBMX). Cells were incubated with the peptides at concentrations ranging from 1 pM to 10 μM for 60 min at 37° Celsius. […] Forskolin (10 μM), a direct stimulant of adenylate cyclase, was used as positive control. The assays were stopped by the addition of 0.5 M HCl and mixing by orbital rotation for 2 h at 4° Celsius.
To assess the activity of the inventive peptide at the CRHR2, an intracellular cAMP measurement test using a Flash plate radioactive assay (Catalog No. Cus56088; Perkin Elmer, MA, U.S.A.) was employed.
Transfected SK-N-MC cells were plated in 96-well Biocoat tissue culture dishes (BD Biosciences, San Jose, Calif., U.S.A) overnight at 50,000 cell/well. Cells were first washed with PBS and then suspended with DMEM/F-12 without phenol red, containing […]. Suspended cells were transferred into a 96-well flash plate coated with scintillant fluid. Cells were incubated with peptides ranging from […], for 60 min, at 37° Celsius. Forskolin at 10 μM was used as positive control. After ligand stimulation, cells were lysed by the addition of 0.5M HCl and mixed by orbital rotation for 2 h at 4° Celsius in order to release intracellular cAMP into the media.
Media containing released intracellular cAMP was transferred to a 96-well flash plate coated with scintillant fluid containing an anti-cAMP antibody. In this assay, intracellular cAMP competes with ^125I-labeled cAMP binding to the antibody. To generate a standard curve, cAMP ranging from 2.5 to 250 pmoles/ml was included in the experiment. [^125I]-cAMP was measured on a TopCount scintillation counter (Perkin Elmer, MA, U.S.A).
Individual agonist concentration-response curve data were fitted to the Hill equation, see formula below, using GraphPad Prism (Graphpad Software, La Jolla, Calif., U.S.A.), to provide estimates of agonist concentration needed to generate one-half maximal response (A50), and the maximal asymptote (α) and Hill slope (nH) parameters. In this equation, [A] is the agonist concentration and E is the measured effect:
For display purposes the mean fitted parameter estimates were used to generate a single E/[A] curve shown superimposed on the mean experimental data. Potency estimates for agonists, pA50, are expressed as the negative logarithm of the midpoint of each curve and listed with their standard error of measurement (SEM). Logarithm base 10 of the agonist dose ratio (Log DR) values were calculated by subtraction of the test compound pA50 value from the corresponding h-SCP (SEQ ID NO:1) control pA50 value within the same assay batch. The SEM values of the Log DR values are given by the square root of the sum of the squared SEM values of the h-SCP (SEQ ID NO:1) control and test compound pA50 values.
Human and rat peptides (see Table 10) were used on the stimulation of h-CRHR1 or h-CRHR2 transfected SK-N-MC cells in the cAMP flash plate assay. Peptides were incubated for 1 hr at 37° Celsius. Curves were calculated using non-linear regression sigmoidal concentration-response analysis calculation in GraphPad Prism. The so obtained pA50 values are shown in Table 11 in addition to literature values. […]

Row | Log DR | SMILES
1 | −0.01 | CC[C@H](C)[C@H](NC(=O)[C@H](CCC(N)=O)NC(=O)[C@H](C)NC(=O)[C@H](CCSC)NC(=O)[C@H](CC(C)C)NC(=O)[C@H](Cc1c[nH]cn1)NC(=O)[C@H](C)NC(=O)[C@H](CC(N)=O)NC(=O)[C@H](C)NC(=O)[C@H](C)NC(=O)[C@H](C)NC(=O)[C@H](CCC(N)=O)NC(=O)[C@H](C)NC(=O)[C@H](CCCNC(=N)N)NC(=O)[C@H](CC(C)C)NC(=O)[C@H](CC(N)=O)NC(=O)[C@H](CSC1CC(=O)N(CC)C1=O)NC(=O)[C@H](C)NC(=O)[C@H](CCCCN)NC(=O)[C@H](C)NC(=O)[C@@H](NC(=O)[C@H](CC(N)=O)NC(=O)[C@H](Cc1ccccc1)NC(=O)[C@H](CC(C)C)NC(=O)[C@H](CC(C)C)NC(=O)[C@H](CC(N)=O)NC(=O)[C@H](CCSC)NC(=O)[C@@H](NC(=O)[C@H](CC(N)=O)NC(=O)[C@@H](NC(=O)[C@@H]1CCCN1C(=O)[C@@H](NC(=O)[C@H](CC(=O)O)NC(=O)[C@H](CC(C)C)NC(=O)[C@H](CO)NC(=O)[C@H](CC(C)C)NC(=O)[C@@H](NC(=O)[C@H](Cc1ccccc1)NC(=O)[C@H](CCCCN)NC(=O)[C@@H](N)[C@@H](C)O)[C@@H](C)O)C(C)C)[C@@H](C)O)[C@@H](C)CC)[C@@H](C)CC)C(N)=O (stereo partly shown) [SEQ ID NO: 50, TKFTLSLDVPTNIMNLLFNIAKAC(-NES)N LRAQA AANAH LMAQI-NH2] (H-TKFTLSLDVPTNIMNLLFNIAKAC(Succinimide(1-Et,3-yl))NLRAQAAANAHLMAQI-NH2; N-terminus assumed)
2 | 0.68 | CC[C@H](C)[C@H](NC(=O)[C@H](CCC(N)=O)NC(=O)[C@H](C)NC(=O)[C@H](CCSC)NC(=O)[C@H](CC(C)C)NC(=O)[C@H](Cc1c[nH]cn1)NC(=O)[C@H](C)NC(=O)[C@H](CC(N)=O)NC(=O)[C@H](C)NC(=O)[C@H](C)NC(=O)[C@H](C)NC(=O)[C@H](CCC(N)=O)NC(=O)[C@H](C)NC(=O)[C@H](CCCNC(=N)N)NC(=O)[C@H](CC(C)C)NC(=O)[C@H](CC(N)=O)NC(=O)[C@H](CCCCN)NC(=O)[C@H](C)NC(=O)[C@H](CCCCN)NC(=O)[C@H](C)NC(=O)[C@H](CSC1CC(=O)N(CC)C1=O)NC(=O)[C@H](CC(N)=O)NC(=O)[C@H](Cc1ccccc1)NC(=O)[C@H](CC(C)C)NC(=O)[C@H](CC(C)C)NC(=O)[C@H](CC(N)=O)NC(=O)[C@H](CCSC)NC(=O)[C@@H](NC(=O)[C@H](CC(N)=O)NC(=O)[C@@H](NC(=O)[C@@H]1CCCN1C(=O)[C@@H](NC(=O)[C@H](CC(=O)O)NC(=O)[C@H](CC(C)C)NC(=O)[C@H](CO)NC(=O)[C@H](CC(C)C)NC(=O)[C@@H](NC(=O)[C@H](Cc1ccccc1)NC(=O)[C@H](CCCCN)NC(=O)[C@@H](N)[C@@H](C)O)[C@@H](C)O)C(C)C)[C@@H](C)O)[C@@H](C)CC)C(N)=O (stereo partly shown) [SEQ ID NO: 51, TKFTL SLDVP TNIMN LLFNC(-NES) AKAKN LRAQA AANAH LMAQI-NH2] (H-TKFTLSLDVPTNIMNLLFNC(Succinimide(1-Et,3-yl))AKAKNLRAQAAANAHLMAQI-NH2; N-terminus assumed)
3 | 0.05 | CC[C@H](C)[C@H](NC(=O)[C@H](CCC(N)=O)NC(=O)[C@H](C)NC(=O)[C@H](CCSC)NC(=O)[C@H](CC(C)C)NC(=O)[C@H](Cc1c[nH]cn1)NC(=O)[C@H](C)NC(=O)[C@H](CC(N)=O)NC(=O)[C@H](C)NC(=O)[C@H](C)NC(=O)[C@H](C)NC(=O)[C@H](CCC(N)=O)NC(=O)[C@H](C)NC(=O)[C@H](CCCNC(=N)N)NC(=O)[C@H](CC(C)C)NC(=O)[C@H](CC(N)=O)NC(=O)[C@H](CCCCN)NC(=O)[C@H](C)NC(=O)[C@H](CCCCN)NC(=O)[C@H](C)NC(=O)[C@@H](NC(=O)[C@H](CSC1CC(=O)N(CC)C1=O)NC(=O)[C@H](Cc1ccccc1)NC(=O)[C@H](CC(C)C)NC(=O)[C@H](CC(C)C)NC(=O)[C@H](CC(N)=O)NC(=O)[C@H](CCSC)NC(=O)[C@@H](NC(=O)[C@H](CC(N)=O)NC(=O)[C@@H](NC(=O)[C@@H]1CCCN1C(=O)[C@@H](NC(=O)[C@H](CC(=O)O)NC(=O)[C@H](CC(C)C)NC(=O)[C@H](CO)NC(=O)[C@H](CC(C)C)NC(=O)[C@@H](NC(=O)[C@H](Cc1ccccc1)NC(=O)[C@H](CCCCN)NC(=O)[C@@H](N)[C@@H](C)O)[C@@H](C)O)C(C)C)[C@@H](C)O)[C@@H](C)CC)[C@@H](C)CC)C(N)=O (stereo partly shown) [SEQ ID NO: 52, TKFTL SLDVP TNIMN LLFC(-NES)I AKAKN LRAQA AANAH LMAQI-NH2] (H-TKFTLSLDVPTNIMNLLFC(Succinimide(1-Et,3-yl))IAKAKNLRAQAAANAHLMAQI-NH2; N-terminus assumed)
4 | ~2.22 | CC[C@H](C)[C@H](NC(=O)[C@H](CCC(N)=O)NC(=O)[C@H](C)NC(=O)[C@H](CCSC)NC(=O)[C@H](CC(C)C)NC(=O)[C@H](Cc1c[nH]cn1)NC(=O)[C@H](C)NC(=O)[C@H](CC(N)=O)NC(=O)[C@H](C)NC(=O)[C@H](C)NC(=O)[C@H](C)NC(=O)[C@H](CCC(N)=O)NC(=O)[C@H](C)NC(=O)[C@H](CCCNC(=N)N)NC(=O)[C@H](CC(C)C)NC(=O)[C@H](CC(N)=O)NC(=O)[C@H](CCCCN)NC(=O)[C@H](C)NC(=O)[C@H](CCCCN)NC(=O)[C@H](C)NC(=O)[C@@H](NC(=O)[C@H](CC(N)=O)NC(=O)[C@H](Cc1ccccc1)NC(=O)[C@H](CSC1CC(=O)N(CC)C1=O)NC(=O)[C@H](CC(C)C)NC(=O)[C@H](CC(N)=O)NC(=O)[C@H](CCSC)NC(=O)[C@@H](NC(=O)[C@H](CC(N)=O)NC(=O)[C@@H](NC(=O)[C@@H]1CCCN1C(=O)[C@@H](NC(=O)[C@H](CC(=O)O)NC(=O)[C@H](CC(C)C)NC(=O)[C@H](CO)NC(=O)[C@H](CC(C)C)NC(=O)[C@@H](NC(=O)[C@H](Cc1ccccc1)NC(=O)[C@H](CCCCN)NC(=O)[C@@H](N)[C@@H](C)O)[C@@H](C)O)C(C)C)[C@@H](C)O)[C@@H](C)CC)[C@@H](C)CC)C(N)=O (stereo partly shown) [SEQ ID NO: 53, TKFTL SLDVP TNIMN LC(-NES)FNI AKAKN LRAQA AANAH LMAQI-NH2] (H-TKFTLSLDVPTNIMNLC(Succinimide(1-Et,3-yl))FNIAKAKNLRAQAAANAHLMAQI-NH2; N-terminus assumed)
